Results: patent US10233184B2, “7-substituted sulfonimidoylpurinone compounds and derivatives for the treatment and prophylaxis of virus infection” (Hoffmann-La Roche Inc., priority 2016, dated 2019)
Values after ≈ are worked out from the molar mass of the structure shown. Like-named read-outs stand apart in the source and are kept apart here.

What was measured:
[1] = Portal vein study: oral PK in PVC/CAC dual cannulated rat; type: in vivo; conditions: prodrug 10 mg/kg oral, analyte prodrug
Experimental: Surgery was performed under pentobarbital/isoflurane anesthesia. Briefly, after disinfecting the abdominal area with betadine and 70% isopropyl alcohol, a small abdominal mid-line incision was made. The cecum was pulled out and mesenteric vein was identified and isolated for about 5 mm vessel. A loose ligature was placed proximally and distal end of the vein was ligated. Make a small incision (just enough to allow the insertion of the catheter) on isolated vein and insert the PU catheter towards liver for appropriate length. The catheter was secured in place by tying the loose ligature around the cannulated vessel. The cecum was replaced into abdominal cavity. A hole was made in the right abdominal wall to make the end of catheter pass freely. The catheter was secured by suture on the abdominal wall. The abdominal muscle incision was closed with suture. A small incision was made in the scapular area to serve as the exit site of the catheter. The catheter was subcutaneously tunneled and exteriorized through the scapular incision. A fixed suture was placed in the scapular region. The patency of the catheter was checked and then exteriorized from the subcutaneous space to the dorsal neck region. After gently wiping the area, the abdominal cavity was sutured. The left carotid artery was then cannulated by inserting a PESO catheter. Both the exteriorized catheters were tied firmly on the dorsal neck region and fixed. The animals was then allowed to recover in its cage and used for study at least 3 days after surgery. All catheters were flushed once daily with heparinized saline to maintain patency. Animals were fasted overnight (n=3) and administered vial oral gavage (10 mg/kg, 10 mL/kg). Blood samples (60 μL) were collected simultaneously from the portal and carotid artery catheters at 0.083, 0.25, 0.5, 1, 2, 4, 7, 24 h. All blood samples will be transferred into microcentrifuge tubes containing 2 μL of K2EDTA (0.5M) as anti-coagulant and placed on wet ice. Then blood samples will be processed for plasma by centrifugation at approximately 4° C., 3000 g within half an hour of collection. Plasma samples will be stored in polypropylene tubes, quick frozen over dry ice and kept at −70±10° C. until LC/MS/MS analysis. Pharmacokinetic parameters (mean±SD, n=3) of prodrugs and active forms in portal and carotid samples following oral administration of prodrugs (10 mg/kg) in portal vein cannulated rat were detected and analyzed.

[2] = LYSA solubility study; type: physicochemical; conditions: phosphate buffer, pH 6.5, aqueous buffer, thermodynamic from solid, 0.05M phosphate buffer pH 6.5, read-out: LYSA of Prodrugs
Outline: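 Samples from 10 mM DMSO stock were dried, redissolved in 0.05M phosphate buffer pH 6.5, stirred 1 h, shaken 2 h, left overnight and filtered. Filtrate and 1/10 dilution quantified by HPLC-UV; solubility in μg/mL, reported as greater-than when >80% of the maximum sample amount was in solution.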

[3] = carotid artery plasma, read-out: AUC0-2 (nM · h), prodrug, Carotid sampling
[4] = carotid artery plasma, read-out: Cmax (nM), prodrug, Carotid sampling
[5] = carotid artery plasma, read-out: Tmax (h), prodrug, Carotid sampling
[6] = portal vein plasma, read-out: AUC0-2 (nM · h), prodrug, Portal sampling
[7] = portal vein plasma, read-out: Cmax (nM), prodrug, Portal sampling
[8] = portal vein plasma, read-out: Tmax (h), prodrug, Portal sampling

## CCCN(C)C(=O)n1c(=O)n(Cc2ccc(Cl)cc2)c2nc([S@](=N)(=O)CC)nc(N)c21 [Example 41-A, 6-Amino-9-[(4-chlorophenyl)methyl]-2-[S(R)-ethylsulfonimidoyl]-N-methyl-8-oxo-N-propyl-purine-7-carboxamide]
[1]; [3]
  AUC(0-t): 0.114 µM·h
[1]; [4]
  Cmax: 210 nM
[1]; [5]
  Tmax: 0.19 h
[1]; [6]
  AUC(0-t): 2.19 µM·h
[1]; [7]
  Cmax: 9700 nM
[1]; [8]
  Tmax: 0.14 h
[2]
  solubility thermodynamic: 260 µg/mL (≈ 558 µM)

## CCCN(C)C(=O)n1c(=O)n(Cc2ccc(Cl)cc2)c2nc([S@@](=N)(=O)CC)nc(N)c21 [Example 41-B, 6-Amino-9-[(4-chlorophenyl)methyl]-2-[S(S)-ethylsulfonimidoyl]-N-methyl-8-oxo-N-propyl-purine-7-carboxamide]
[1]; [3]
  AUC(0-t): 0.0225 µM·h
[1]; [4]
  Cmax: 29.6 nM
[1]; [5]
  Tmax: 0.25 h
[1]; [6]
  AUC(0-t): 1.44 µM·h
[1]; [7]
  Cmax: 7070 nM
[1]; [8]
  Tmax: 0.19 h
[2]
  solubility thermodynamic: 250 µg/mL (≈ 537 µM)

## CCN(C)C(=O)n1c(=O)n(Cc2ccc(Cl)cc2)c2nc([S@@](=N)(=O)CC)nc(N)c21 [Example 42-A, 6-Amino-9-[(4-chlorophenyl)methyl]-N-ethyl-2[S(S)-ethylsulfonimidoyl]-N-methyl-8-oxo-purine-7-carboxamide]
[1]; [3]
  AUC(0-t): 0.286 µM·h
[1]; [4]
  Cmax: 286 nM
[1]; [5]
  Tmax: 0.22 h
[1]; [6]
  AUC(0-t): 3.46 µM·h
[1]; [7]
  Cmax: 8920 nM
[1]; [8]
  Tmax: 0.19 h
[2]
  solubility thermodynamic: 225 µg/mL (≈ 498 µM)

## CCCN(C)C(=O)n1c(=O)n(Cc2ccc(C)cc2)c2nc([S@](=N)(=O)CC)nc(N)c21 [Example 43-A, 6-Amino-2-[S(R)-ethylsulfonimidoyl]-N-methyl-8-oxo-N-propyl-9-(p-tolylmethyl)purine-7-carboxamide]
[1]; [3]
  AUC(0-t): 0.124 µM·h
[1]; [4]
  Cmax: 191 nM
[1]; [5]
  Tmax: 0.22 h
[1]; [6]
  AUC(0-t): 2.07 µM·h
[1]; [7]
  Cmax: 4110 nM
[1]; [8]
  Tmax: 0.28 h
[2]
  solubility thermodynamic: 203 µg/mL (≈ 456 µM)
